We go through 6 compounds from patent US9901583B2, “Method of treating non-small cell lung cancer and/or small cell lung cancer using thienotriazolodiazepine compounds” (ONCOETHIX GMBH, priority 2014, dated 2018).

Several values for one entry are separate records, joined by “and”; a condition that tells them apart may be missing. Equal entries are not always repeated. Some results are limits rather than exact numbers.

Usually IC50 stands for the concentration at which inhibition is half-maximal. The term Ki denotes a measure of affinity in units of concentration, obtained from inhibition or displacement. One may read the GI50 as the concentration that inhibits growth by half.

For series [1], the system named is Akt phosphorylation on S473. Conditions: cited from earlier work.
In series [2] the test system is Akt phosphorylation on T308. As to conditions: cited from earlier work.
For another series, the target named is PI3Kγ (p110γ) (Homo sapiens, UniProt P48736). Conditions: cited from earlier work.
Sequence of PI3Kγ (p110γ) (P48736 whole entry, species assumed): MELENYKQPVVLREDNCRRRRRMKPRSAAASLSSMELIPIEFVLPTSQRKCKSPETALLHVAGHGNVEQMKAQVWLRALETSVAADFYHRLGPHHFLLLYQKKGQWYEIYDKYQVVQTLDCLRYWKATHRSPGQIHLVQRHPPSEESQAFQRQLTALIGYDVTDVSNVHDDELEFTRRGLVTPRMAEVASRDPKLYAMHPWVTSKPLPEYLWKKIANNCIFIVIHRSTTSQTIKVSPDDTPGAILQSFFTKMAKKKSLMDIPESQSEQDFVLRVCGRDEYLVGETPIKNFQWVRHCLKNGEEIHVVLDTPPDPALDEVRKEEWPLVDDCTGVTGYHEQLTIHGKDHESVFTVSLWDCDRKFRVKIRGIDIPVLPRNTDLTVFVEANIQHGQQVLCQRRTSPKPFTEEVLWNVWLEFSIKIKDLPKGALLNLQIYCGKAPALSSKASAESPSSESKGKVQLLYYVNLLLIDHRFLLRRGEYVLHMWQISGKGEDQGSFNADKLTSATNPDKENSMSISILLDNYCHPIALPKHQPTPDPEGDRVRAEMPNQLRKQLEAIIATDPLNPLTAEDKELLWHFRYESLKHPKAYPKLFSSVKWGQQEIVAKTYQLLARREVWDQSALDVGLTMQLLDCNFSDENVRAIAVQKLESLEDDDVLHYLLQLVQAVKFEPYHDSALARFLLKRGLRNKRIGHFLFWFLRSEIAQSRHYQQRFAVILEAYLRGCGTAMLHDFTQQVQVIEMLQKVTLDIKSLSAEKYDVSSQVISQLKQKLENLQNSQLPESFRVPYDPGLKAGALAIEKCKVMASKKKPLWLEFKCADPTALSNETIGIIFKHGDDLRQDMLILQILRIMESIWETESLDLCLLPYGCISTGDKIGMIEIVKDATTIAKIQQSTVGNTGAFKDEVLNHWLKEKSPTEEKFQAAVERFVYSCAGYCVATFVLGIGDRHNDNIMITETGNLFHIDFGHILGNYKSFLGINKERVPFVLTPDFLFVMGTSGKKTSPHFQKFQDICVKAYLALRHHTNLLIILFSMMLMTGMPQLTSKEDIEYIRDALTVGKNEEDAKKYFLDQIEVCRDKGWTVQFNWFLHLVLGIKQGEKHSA
Another series concerns the target PI3Kβ (p110β) (Homo sapiens, UniProt P42338). As to conditions: cited from earlier work.
Another series relates to PDGFR. As to conditions: read-out: IC50 PDGFR; cited from earlier work.
The next series concerns the target FKBP12 (Homo sapiens, UniProt P62942). As to conditions: cited from earlier work.
The next series deals with H2228 cells. Briefly: Combination with crizotinib, Chou-Talalay combination index. Type of series: cell-based. Conditions: 48 h concomitant exposure, dihydrate. How it is done: (§1) Protein levels were analyzed by Western Blot with commercial antibodies; RT-PCR was done with Fast SYBR Green Master Mix on a StepOnePlus Real-Time PCR System at baseline, 4 and 24 h post-treatment. For cell cycle analysis cells were stained with propidium iodide and DNA content analyzed with a FACScan flow cytometer. Compound (1-1) was combined with the targeted agents everolimus and crizotinib and the combination index (CI) determined by the Chou-Talalay method.
(§2) Materials and Methods. Five established NSCLC cell lines, HOP62, HOP92, A549, H2228, and H3122 harboring different oncogenic mutations for KRAS, LKB I, TP53 and ALK (FIG. 13) were exposed to increasing doses of compound (1-1) (OncoEthix SA, Switzerland) for 72 h and cell proliferation was evaluated by MTT assays. Results represent the mean±95% CI of at least 3 independent experiments performed in triplicate. Protein levels were analyzed by Western blot using commercial antibodies. For cell cycle analysis cells were stained with PI and analyzed using a FACScan flow cytometer after 24 h of treatment. […] Concomitant compound (1-1) combination studies were performed in cell lines exposed for 48 h to increasing doses of compound (1-1) alone or in combination with everolimus or crizotinib, and assessed using the Chou & Talalay method. Combination Index (CI) was determined by median effect plot analysis using CalcuSyn software. […]

In a further series the test system is H3122. Briefly: Cell cycle analysis (propidium iodide, FACScan). It is filed as cell-based. Conditions: H3122, 24 h exposure at 500 nM. How it is done: as §1, §2
The subject of the next series is HOP92. Briefly: Cell cycle analysis (propidium iodide, FACScan). Type of series: cell-based. As to conditions: HOP92, 24 h exposure at 500 nM. How it is done:
as §1, §2

The subject of a further series is H2226. Briefly: Cell cycle analysis (propidium iodide, FACScan). It is filed as cell-based. As to conditions: H2226, 24 h exposure at 500 nM.
For series [3], the system named is NSCLC cell lines (H2228, H3122, A549, HOP62, HOP92). Briefly: MTT assay, growth inhibition, NSCLC panel. Type of series: cell-based. As to conditions: 72 h, 72 h exposure, 4 of 5 NSCLC cell lines. The method, then: as §1, §2
On the technique in general: Tetrazolium dyes change colour on reduction, which living cells bring about.

Series [4] can be described thus: Oral exposure in the rat (pharmacokinetics). Type of series: in vivo, Sprague Dawley rats. Conditions: 1 mg/kg intravenous, rats. How it is done: The oral bioavailability of three formulations of solid dispersions of compound (1-1) was determined in rats. The three dispersions chosen were the 25% dispersion of compound (1-1) in PVP, the 25% dispersion of compound (1-1) in HPMCAS-MG, and the 50% dispersion of compound (1-1) in HPMCAS-MG. The animals used in the study were Specific Pathogen Free (SPF) Hsd:Sprague Dawley rats obtained from the Central Animal Laboratory at the University of Turku, Finland. The rats were originally purchased from Harlan, The Netherlands. The rats were female and were ten weeks of age, and 12 rats were used in the study. […]
The oral dosing solutions containing the 25% dispersion of compound (1-1) in PVP, the 25% dispersion of compound (1-1) in HPMCAS-MG, and the 50% dispersion of compound (1-1) in HPMCAS-MG were prepared by adding a pre-calculated amount of sterile water for injection to containers holding the dispersion using appropriate quantities to obtain a concentration of 0.75 mg/mL of compound (1-1). […]
Pharmacokinetic parameters were calculated with the Phoenix WinNonlin software package (version 6.2.1, Pharsight Corp., CA, USA) with standard noncompartmental methods. The elimination phase half-life (t1/2) was calculated by least-squares regression analysis of the terminal linear part of the log concentration-time curve. […]

For a further series, the system named is H3122 cells. Briefly: H3122 tumor-bearing mice. As to conditions: 3 weeks of treatment. Type of series: in vivo, male athymic NMRI nude mice. How it is done:
In vivo studies: 5×10^6 H3122 cells were injected in the flank of male athymic NMRI nude mice, and mice were randomized to 3 groups (8 mice/group) when tumor volume reach 100 mm^3; vehicle (PBS, once daily, oral continuous), Compound (1-1) (50 mg/kg/bidaily, gavage, continuous), or crizotinib (25 mg/kg/daily, gavage, continuous).

A further series has as its system H69 cells. Briefly: MTT assay, growth inhibition. As to conditions: Homo sapiens, NCI-H69, 72 h exposure. Type of series: cell-based. How it is done:
(§3) Protein levels were analyzed by Western Blot using commercial antibodies and RT-PCR was performed with Fast SYBR Green Master Mix on a StepOnePlus Real-Time PCR System at baseline, then 4 and 24 h post-treatment. For cell cycle analysis, cells were stained with propidium iodide and analyzed for DNA content with a FACScan flow cytometer.
(§4) Cell lines were exposed to increasing doses of compound (1-1) for 72 hours, and cell proliferation was evaluated with the MTT assay. GI50 and Emax values were calculated with the equation for sigmoidal dose response using Prism 5.00 for Windows. Results represent the mean±95% CI of at least 3 independent experiments performed in triplicate.
(§5) For cell cycle analysis, cells were stained with propidium iodide and analyzed with a FACScan flow cytometer. RNA was isolated after treatment with DMSO or OTX015 (500 nM) for 2, 4, 8 or 12 and 24 h and gene expression profiles (GEP) were obtained in all NSCLC and 2 SCLC (H82 and DMS114) cell lines with Illumina HumanHT-12 Expression BeadChips. Data mining was done with LIMMA, GSEA, Metacore.

The subject of another series is DMS114 cells. Briefly: MTT assay, growth inhibition. Type of series: cell-based. As to conditions: Homo sapiens, DMS-114, read-out: GI50 (95% CI), 72 h exposure. The method, then: as §3, §4, §5
In a further series the test system is H82 cells. Briefly: MTT assay, growth inhibition. Type of series: cell-based. Conditions: Homo sapiens, NCI-H82, 72 h exposure. How it is done:
as §3, §4, §5

Another series concerns DMS79 cells. Briefly: MTT assay, growth inhibition. Conditions: Homo sapiens, DMS-79, 72 h exposure. It is filed as cell-based. The method, then: as §3, §4, §5
In another series the test system is PI3K/mTOR. Conditions: cited from earlier work.

Sequence of PI3Kβ (p110β) (P42338 whole entry, species assumed): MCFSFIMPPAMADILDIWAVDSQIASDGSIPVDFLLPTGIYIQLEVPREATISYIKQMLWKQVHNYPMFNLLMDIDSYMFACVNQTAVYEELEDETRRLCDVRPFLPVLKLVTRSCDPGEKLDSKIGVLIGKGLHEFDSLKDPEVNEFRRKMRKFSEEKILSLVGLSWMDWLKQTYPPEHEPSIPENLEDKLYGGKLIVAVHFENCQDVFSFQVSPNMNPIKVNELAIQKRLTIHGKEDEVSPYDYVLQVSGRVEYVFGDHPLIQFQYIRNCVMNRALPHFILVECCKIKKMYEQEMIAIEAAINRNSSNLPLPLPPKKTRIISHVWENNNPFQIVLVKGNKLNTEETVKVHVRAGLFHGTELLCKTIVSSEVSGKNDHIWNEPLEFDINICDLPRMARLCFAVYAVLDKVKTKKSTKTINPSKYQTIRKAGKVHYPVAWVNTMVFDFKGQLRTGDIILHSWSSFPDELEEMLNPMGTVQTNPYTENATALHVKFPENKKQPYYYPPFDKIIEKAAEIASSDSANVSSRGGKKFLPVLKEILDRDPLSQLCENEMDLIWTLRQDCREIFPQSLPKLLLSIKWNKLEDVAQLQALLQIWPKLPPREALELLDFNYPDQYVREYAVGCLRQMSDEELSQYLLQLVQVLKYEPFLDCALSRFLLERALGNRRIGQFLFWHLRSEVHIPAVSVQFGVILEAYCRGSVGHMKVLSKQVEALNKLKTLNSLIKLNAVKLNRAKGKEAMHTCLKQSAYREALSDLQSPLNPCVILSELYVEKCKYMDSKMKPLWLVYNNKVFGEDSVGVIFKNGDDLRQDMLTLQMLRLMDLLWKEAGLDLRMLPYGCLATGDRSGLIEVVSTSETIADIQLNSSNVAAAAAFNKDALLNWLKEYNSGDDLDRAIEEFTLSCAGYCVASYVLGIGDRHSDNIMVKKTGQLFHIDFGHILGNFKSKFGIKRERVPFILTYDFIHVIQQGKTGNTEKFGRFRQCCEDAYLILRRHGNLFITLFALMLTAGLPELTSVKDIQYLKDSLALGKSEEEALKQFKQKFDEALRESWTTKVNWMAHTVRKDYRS
Sequence of PI3Kβ (p110β) (P27986 whole entry partner, species assumed): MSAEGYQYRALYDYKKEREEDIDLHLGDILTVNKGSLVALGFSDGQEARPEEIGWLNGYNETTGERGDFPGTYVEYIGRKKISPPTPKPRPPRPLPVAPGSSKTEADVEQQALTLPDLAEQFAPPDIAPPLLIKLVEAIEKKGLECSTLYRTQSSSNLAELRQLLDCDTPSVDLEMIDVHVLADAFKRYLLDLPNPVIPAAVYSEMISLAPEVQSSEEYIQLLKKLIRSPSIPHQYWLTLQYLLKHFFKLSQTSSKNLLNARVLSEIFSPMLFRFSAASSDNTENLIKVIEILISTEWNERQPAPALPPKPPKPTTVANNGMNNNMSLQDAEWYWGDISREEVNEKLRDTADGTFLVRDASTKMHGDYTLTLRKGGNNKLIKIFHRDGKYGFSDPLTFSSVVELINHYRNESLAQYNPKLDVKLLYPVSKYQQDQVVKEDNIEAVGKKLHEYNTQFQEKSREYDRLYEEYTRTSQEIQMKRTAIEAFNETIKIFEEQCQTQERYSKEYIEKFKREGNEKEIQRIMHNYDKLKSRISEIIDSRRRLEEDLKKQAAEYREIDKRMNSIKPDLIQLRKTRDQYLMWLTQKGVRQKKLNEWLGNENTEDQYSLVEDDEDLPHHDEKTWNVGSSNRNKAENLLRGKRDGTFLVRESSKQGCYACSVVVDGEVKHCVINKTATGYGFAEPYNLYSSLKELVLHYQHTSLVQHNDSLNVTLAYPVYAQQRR
Sequence of FKBP12 (P62942 whole entry, species assumed): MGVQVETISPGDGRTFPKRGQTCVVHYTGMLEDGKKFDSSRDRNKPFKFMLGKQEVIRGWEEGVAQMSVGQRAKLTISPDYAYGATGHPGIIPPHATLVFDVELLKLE

As for `COc1ccc(-c2cc3c(C)nc(N)nc3n([C@H]3CC[C@H](OCCO)CC3)c2=O)cn1` [PF-04691502], the IC50 in series [1] is 3.8 nM; in [2], 7.5 nM.

Consider GSK2126458, for which the inhibitory constant (Ki) on PI3Kγ (p110γ) is 0.024 nM; on PI3Kβ (p110β), 0.13 nM.

Turning to `Nc1ncnc2c1c(-c1cnc3[nH]ccc3c1)nn2C1CCCC1` [PP-121], the IC50 in the series on PDGFR is 2 nM.

Regarding `CO[C@H]1C[C@@H]2CC[C@@H](C)[C@@](O)(O2)C(=O)C(=O)N2CCCC[C@H]2C(=O)O[C@H]([C@H](C)C[C@@H]2CC[C@@H](OCCO)[C@H](OC)C2)CC(=O)[C@H](C)/C=C(\C)[C@@H](O)[C@@H](OC)C(=O)[C@H](C)C[C@H](C)/C=C/C=C/C=C/1C` [Everolimus], on FKBP12, the IC50 was 1.6 to 2.4 nM.

Turning to `Cc1sc2c(c1C)C(c1ccc(Cl)cc1)=N[C@@H](CC(=O)Nc1ccc(O)cc1)c1nnc(C)n1-2` [Compound (1-1), 2-[(6S)-4-(4-chlorophenyl)-2,3,9-trimethyl-6H-thienol[3,2-f]-[1,2,4]triazolo[4,3-a][1,4]diazepin-6-yl]-N-(4-hydroxyphenyl)acetamide dihydrate], the “combination index (CI) with crizotinib” value with H2228 cells was 0.98 and 0.9. For the same compound, the “reduction of percent cells in the S phase” value turned out to be 52% in the series with H3122, 40% in the series on HOP92 and 42% in the series on H2226. The concentration for 50% growth inhibition (GI50) is 110 to 940 nM in series [3]; greater than 6000 nM with H69 cells; 120 nM in the series on DMS114 cells; greater than 6000 nM in the series with H82 cells; greater than 6000 nM in the series on DMS79 cells. In [4], the CI/F was 13.4 mL/min/kg. The weight loss result in the series on H3122 cells is “no weight loss was observed”.

As to `COc1ccc(-c2ccc3ncc4c(c3c2)n(-c2ccc(N3CCNCC3)c(C(F)(F)F)c2)c(=O)n4C)cn1` [NVP-BGT226], the IC50 in the series on PI3K/mTOR is 1 nM.
